Assay results: publication PMC9239059, “Structure-Guided Synthesis of FK506 and FK520 Analogs with Increased Selectivity Exhibit In Vivo Therapeutic Efficacy against Cryptococcus” (mBio, 2022)
≈ marks a conversion by molar mass, not a printed value.

How the values were obtained:
FKBP12 = biological target: T1, FKBP12 (Candida albicans, UniProt C4YFI3+C4YS24+P28870); experiment: BLI, compound-mediated ternary complex formation, […] compound; format: binding
T1 construct: gene RBP1; biotinylated (Avi-tagged) FKBP12; with CnA-CnB-calmodulin
T1 sequence (P28870 whole entry): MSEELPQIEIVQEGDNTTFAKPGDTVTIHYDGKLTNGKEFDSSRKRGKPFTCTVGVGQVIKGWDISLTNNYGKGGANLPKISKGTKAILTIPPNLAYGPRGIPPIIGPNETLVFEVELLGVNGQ
T1 sequence (C4YFI3 54-445): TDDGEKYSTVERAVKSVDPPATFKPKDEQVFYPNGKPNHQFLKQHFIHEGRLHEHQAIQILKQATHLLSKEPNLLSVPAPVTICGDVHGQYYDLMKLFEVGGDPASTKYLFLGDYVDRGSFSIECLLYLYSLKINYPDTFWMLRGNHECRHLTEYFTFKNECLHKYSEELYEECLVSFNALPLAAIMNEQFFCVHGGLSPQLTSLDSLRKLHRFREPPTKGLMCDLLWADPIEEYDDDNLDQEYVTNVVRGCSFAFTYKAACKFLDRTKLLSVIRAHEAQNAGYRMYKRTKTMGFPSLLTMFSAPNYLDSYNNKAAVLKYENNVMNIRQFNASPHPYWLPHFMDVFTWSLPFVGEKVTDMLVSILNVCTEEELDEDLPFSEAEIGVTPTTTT
T1 sequence (C4YS24 1-173): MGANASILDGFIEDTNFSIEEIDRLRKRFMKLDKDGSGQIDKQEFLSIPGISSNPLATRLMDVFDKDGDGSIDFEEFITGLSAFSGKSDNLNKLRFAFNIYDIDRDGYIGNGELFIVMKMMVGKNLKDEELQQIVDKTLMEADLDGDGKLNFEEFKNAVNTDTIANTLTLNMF
T1 sequence (P23286 whole entry partner): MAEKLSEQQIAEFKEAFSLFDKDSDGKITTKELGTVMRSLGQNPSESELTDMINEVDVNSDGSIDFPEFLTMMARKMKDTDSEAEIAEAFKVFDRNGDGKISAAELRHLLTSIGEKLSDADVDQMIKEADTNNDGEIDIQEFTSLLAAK

[1] = system: T2, Cryptococcus neoformans (H99); experiment: microbe, parasite or virus in culture; design: CLSI M27-A3 broth microdilution in RPMI 1640 at 37 C, growth inhibition of C. neoformans (MIC); details: Cryptococcus neoformans, read-out: MIC (μg/mL) against: / Cryptococcus neoformans (H99)^a
T2 construct: H99
Experimental: In vitro antifungal activities of FK506, FK520, and analogs were assessed in RPMI 1640 (Sigma-Aldrich) for all strains tested. MICs/minimum effective concentrations (MECs) for each drug were measured using modified Clinical and Laboratory Standards Institute (CLSI) M38-A2 and M27-A3 standard in vitro antifungal susceptibility protocols. Broth microdilution assays for MIC/MEC assessment were performed as described previously ([33]). All antifungal assays with C. neoformans were performed at 37°C. Antifungal susceptibility testing for C. albicans was performed in the presence of a uniform 1 μg/mL concentration of fluconazole to sensitize the organism to calcineurin inhibition. MICs/minimum effective concentrations (MECs) were determined for each of the novel analogs against the three major human fungal pathogens, A. fumigatus, C. neoformans, and C. albicans. […] Thus, analogs of FK506 and FK520 can tolerate up to 100-fold reduction in antifungal activity and still be considered for in vivo testing. For C. neoformans, MICs were the most uniform and ranged from 0.2 to 2 μg/mL, which is between 4- and 40-fold reduced for antifungal activity. C. albicans MICs ranged from 0.2 to 6.25 μg/mL, which is between 10- and 312.5-fold reduced for activity. Despite being one of the most difficult to treat fungal infections, all six analogs were active against A. fumigatus with MECs ranging from 1 to 2 μg/mL or a 62.5- to 125-fold reduction in activity.

SMILES: C=CC[C@@H]1/C=C(\C)C[C@H](C)C[C@H](OC)[C@H]2O[C@@](O)(C(=O)C(=O)N3CCCC[C@H]3C(=O)O[C@H](/C(C)=C/[C@@H]3CC[C@@H](O)[C@H](OC)C3)[C@H](C)[C@@H](O)CC1=O)[C@H](C)C[C@@H]2OC [FK506]
- BLI, compound-mediated ternary complex formation, 10 μM compound (FKBP12): along with compounds FK506, APX879, FK520, JH-FK-02, and JH-FK-05
- MIC [1]: 0.05 µg/mL (≈ 0.0622 µM)
